The values below come from US8088815B2, “Spiroindolinone pyrrolidines” (Hoffman-La Roche Inc., priority 2009, dated 2012).

The target of the assay is interaction between p53 and MDM2 proteins (Homo sapiens, UniProt Q00987). Nature of the assay: HTRF assay of inhibition of the p53-MDM2 interaction (GST-MDM2 / biotinylated p53 peptide). The settings on record: recombinant GST-tagged MDM2 and biotinylated p53 peptide, bsa:0.02%. In kind it is binding.
Chain of interaction between p53 and MDM2 proteins (Q00987 whole entry): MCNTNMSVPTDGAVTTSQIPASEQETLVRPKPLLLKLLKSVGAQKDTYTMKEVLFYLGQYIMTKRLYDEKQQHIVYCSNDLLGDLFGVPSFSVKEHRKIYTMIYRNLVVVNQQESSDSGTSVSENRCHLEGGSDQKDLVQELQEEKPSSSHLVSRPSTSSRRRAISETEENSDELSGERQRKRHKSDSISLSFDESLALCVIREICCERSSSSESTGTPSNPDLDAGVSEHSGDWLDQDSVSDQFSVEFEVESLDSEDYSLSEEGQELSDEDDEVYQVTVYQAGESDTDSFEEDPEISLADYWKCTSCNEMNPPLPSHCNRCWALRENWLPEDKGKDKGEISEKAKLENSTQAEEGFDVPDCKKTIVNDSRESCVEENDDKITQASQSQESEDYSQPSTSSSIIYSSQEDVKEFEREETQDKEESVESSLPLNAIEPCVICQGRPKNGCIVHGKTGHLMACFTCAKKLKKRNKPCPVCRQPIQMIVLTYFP
The IC50 is the concentration that inhibits the measured activity by half. Turning to `CC(C)(C)C[C@@H]1N[C@@H](C(=O)Nc2ccccc2)[C@H](c2cccc(Cl)c2F)[C@]12C(=O)Nc1cc(Cl)ccc12` [Example 147, chiral (2′S,3′R,4′S,5′R)-6-chloro-4′-(3-chloro-2-fluoro-phenyl)-2′-(2,2-dimethyl-propyl)-2-oxo-1,2-dihydro-spiro[indole-3,3′-pyrrolidine]-5′-carboxylic acid phenylamide], the half-inhibitory concentration (IC50) was 11 nM.
For the molecule `COc1cc(C(N)=O)ccc1NC(=O)[C@@H]1N[C@@H](CC(C)(C)C)[C@@]2(C(=O)Nc3cc(Cl)ccc32)[C@H]1c1cccc(Cl)c1F` (racemic) [Example 59, rac-(2′S,3′R,4′S,5′R)-6-chloro-4′-(3-chloro-2-fluoro-phenyl)-2′-(2,2-dimethyl-propyl)-2-oxo-1,2-dihydro-spiro[indole-3,3′-pyrrolidine]-5′-carboxylic acid (4-carbamoyl-2-methoxy-phenyl)-amide], the IC50 came out at 14 nM.
With “rac-4-{[(2′S,3′R,4′R,5′R)-6-chloro-4′-(3-chloro-4-fluoro-phenyl)-2′-(2,2-dimethyl-propyl)-2-oxo-1,2-dihydro-spiro[indole-3,3′-pyrrolidine]-5′-carbonyl]-amino}-3-methoxy-benzoic acid [Example 127]”, the 50% inhibitory concentration (IC50) was found to be 12 nM.
With `CC(C)(C)C[C@@H]1N[C@@H](C(=O)Nc2ccc(C(N)=O)cc2)[C@H](c2cccc(Cl)c2F)[C@]12C(=O)Nc1cc(Cl)c(F)cc12` [Example 50, chiral (2′S,3′R,4′S,5′S)-6-chloro-4′-(3-chloro-2-fluoro-phenyl)-2′-(2,2-dimethyl-propyl)-5-fluoro-2-oxo-1,2-dihydro-spiro[indole-3,3′-pyrrolidine]-5′-carboxylic acid (4-carbamoyl-phenyl)-amide] the figure was 6 nM; with `COc1cc(C#N)ccc1NC(=O)[C@@H]1N[C@@H](CC(C)(C)C)[C@@]2(C(=O)Nc3cc(Cl)ccc32)[C@H]1c1cc(F)cc(Cl)c1` (racemic) [Example 114, rac-(2′S,3′R,4′R,5′R)-6-chloro-4′-(3-chloro-5-fluoro-phenyl)-2′-(2,2-dimethyl-propyl)-2-oxo-1,2-dihydro-spiro[indole-3,3′-pyrrolidine]-5′-carboxylic acid (4-cyano-2-methoxy-phenyl)-amide], 12 nM; with `CCCCOc1cc(C(=O)OC)ccc1NC(=O)[C@@H]1N[C@@H](CC(C)(C)C)[C@@]2(C(=O)Nc3cc(Cl)ccc32)[C@H]1c1cccc(Cl)c1F` (racemic) [Example 150, rac-3-butoxy-4-{[(2′S,3′R,4′S,5′R)-6-chloro-4′-(3-chloro-2-fluoro-phenyl)-2′-(2,2-dimethyl-propyl)-2-oxo-1,2-dihydro-spiro[indole-3,3′-pyrrolidine]-5′-carbonyl]-amino}-benzoic acid methyl ester], 15 nM.
To `COc1cc(C(N)=O)ccc1NC(=O)[C@@H]1N[C@@H](CC(C)(C)C)[C@@]2(C(=O)Nc3cc(Cl)ccc32)[C@H]1c1cccc(Cl)c1F` [Example 60, chiral (2′S,3′R,4′S,5′R)-6-chloro-4′-(3-chloro-2-fluoro-phenyl)-2′-(2,2-dimethyl-propyl)-2-oxo-1,2-dihydro-spiro[indole-3,3′-pyrrolidine]-5′-carboxylic acid (4-carbamoyl-2-methoxy-phenyl)-amide] belongs 5 nM; to `CN(C)C(=O)c1ccc(NC(=O)[C@@H]2N[C@@H](CC(C)(C)C)[C@@]3(C(=O)Nc4cc(Cl)ccc43)[C@H]2c2cccc(Cl)c2F)cc1` (racemic) [Example 34, rac-(2′S,3′R,4′S,5′R)-6-chloro-4′-(3-chloro-2-fluoro-phenyl)-2′-(2,2-dimethyl-propyl)-2-oxo-1,2-dihydro-spiro[indole-3,3′-pyrrolidine]-5′-carboxylic acid (4-dimethylcarbamoyl-phenyl)-amide], 18 nM.
With `COC(=O)c1ccc(NC(=O)[C@@H]2N[C@@H](CC(C)(C)C)[C@@]3(C(=O)Nc4cc(Cl)ccc43)[C@H]2c2cccc(Cl)c2F)cc1OC` (racemic) [Example 15, rac-4-{[(2′S,3′R,4′S,5′R)-6-chloro-4′-(3-chloro-2-fluoro-phenyl)-2′-(2,2-dimethyl-propyl)-2-oxo-1,2-dihydro-spiro[indole-3,3′-pyrrolidine]-5′-carbonyl]amino}-2-methoxy-benzoic acid methyl ester] the figure was 13 nM.
`COC(=O)c1cccc(NC(=O)[C@@H]2N[C@@H](CC(C)(C)C)[C@@]3(C(=O)Nc4cc(Cl)ccc43)[C@H]2c2cccc(Cl)c2F)c1` (racemic) [Example 31, rac-3-{[(2′S,3′R,4′S,5′R)-6-chloro-4′-(3-chloro-2-fluoro-phenyl)-2′-(2,2-dimethyl-propyl)-2-oxo-1,2-dihydro-spiro[indole-3,3′-pyrrolidine]-5′-carbonyl]amino}-benzoic acid methyl ester]: the half-maximal inhibitory concentration (IC50) was 17 nM.
With `COc1cc(C#N)ccc1NC(=O)[C@@H]1N[C@@H](CC(C)(C)C)[C@@]2(C(=O)Nc3cc(Cl)c(F)cc32)[C@H]1c1cccc(Cl)c1F` (racemic) [Example 112, rac-(2′S,3′R,4′S,5′R)-6-chloro-4′-(3-chloro-2-fluoro-phenyl)-2′-(2,2-dimethyl-propyl)-5-fluoro-2-oxo-1,2-dihydro-spiro[indole-3,3′-pyrrolidine]-5′-carboxylic acid (4-cyano-2-methoxy-phenyl)-amide], the IC50 turned out to be 15 nM.
To `COC(=O)c1cc2cc(NC(=O)[C@@H]3N[C@@H](CC(C)(C)C)[C@@]4(C(=O)Nc5cc(Cl)ccc54)[C@H]3c3cccc(Cl)c3F)ccc2s1` (racemic) [Example 212, rac-5-{[(2′S,3′R,4′S,5′R)-6-chloro-4′-(3-chloro-2-fluoro-phenyl)-2′-(2,2-dimethyl-propyl)-2-oxo-1,2-dihydro-spiro[indole-3,3′-pyrrolidine]-5′-carbonyl]amino}-benzo[b]thiophene-2-carboxylic acid methyl ester] belongs 18 nM; to `CNc1cc(C(=O)OC)ccc1NC(=O)[C@@H]1N[C@@H](CC(C)(C)C)[C@@]2(C(=O)Nc3cc(Cl)ccc32)[C@H]1c1cccc(Cl)c1F` (racemic) [Example 166, rac-4-{[(2′S,3′R,4′S,5′R)-6-chloro-4′-(3-chloro-2-fluoro-phenyl)-2′-(2,2-dimethyl-propyl)-2-oxo-1,2-dihydro-spiro[indole-3,3′-pyrrolidine]-5′-carbonyl]amino}-3-methylamino-benzoic acid methyl ester], 25 nM; to `CCOC(=O)c1csc(NC(=O)[C@@H]2N[C@@H](CC(C)(C)C)[C@@]3(C(=O)Nc4cc(Cl)ccc43)[C@H]2c2cccc(Cl)c2F)n1` (racemic) [Example 196, rac-2-{[(2′S,3′R,4′S,5′R)-6-chloro-4′-(3-chloro-2-fluoro-phenyl)-2′-(2,2-dimethyl-propyl)-2-oxo-1,2-dihydro-spiro[indole-3,3′-pyrrolidine]-5′-carbonyl]-amino}-thiazole-4-carboxylic acid ethyl ester], 50 nM.
To `CC(C)(C)C[C@@H]1N[C@@H](C(=O)Nc2ccc(C(N)=O)c(Cl)c2)[C@H](c2cccc(Cl)c2F)[C@]12C(=O)Nc1cc(Cl)ccc12` [Example 26, chiral (2′S,3′R,4′S,5′R)-6-chloro-4′-(3-chloro-2-fluoro-phenyl)-2′-(2,2-dimethyl-propyl)-2-oxo-1,2-dihydro-spiro[indole-3,3′-pyrrolidine]-5′-carboxylic acid (4-carbamoyl-3-chloro-phenyl)-amide] belongs 6 nM; to `CC(C)(C)C[C@@H]1N[C@@H](C(=O)Nc2ccc(C#N)cc2F)[C@H](c2cccc(Cl)c2F)[C@]12C(=O)Nc1cc(Cl)ccc12` (racemic) [Example 52, rac-(2′S,3′R,4′S,5′R)-6-chloro-4′-(3-chloro-2-fluoro-phenyl)-2′-(2,2-dimethyl-propyl)-2-oxo-1,2-dihydro-spiro[indole-3,3′-pyrrolidine]-5′-carboxylic acid (4-cyano-2-fluoro-phenyl)-amide], 12 nM.
Consider `COc1cc(C#N)ccc1NC(=O)[C@@H]1N[C@@H](CC(C)(C)C)[C@@]2(C(=O)Nc3c2ccc(Cl)c3F)[C@H]1c1cccc(Cl)c1F` (racemic) [Example 177, rac-(2′S,3′R,4′S,5′R)-6-chloro-4′-(3-chloro-2-fluoro-phenyl)-2′-(2,2-dimethyl-propyl)-7-fluoro-2-oxo-1,2-dihydro-spiro[indole-3,3′-pyrrolidine]-5′-carboxylic acid (4-cyano-2-methoxy-phenyl)-amide], for which the half-maximal inhibitory concentration (IC50) is 21 nM.
As to `COc1cc(C(=O)O)ccc1NC(=O)[C@@H]1N[C@@H](CC(C)(C)C)[C@@]2(C(=O)Nc3cc(Cl)ccc32)[C@H]1c1cccc(Cl)c1F` [Example 111, chiral 4-{[(2′S,3′R,4′S,5′R)-6-chloro-4′-(3-chloro-2-fluoro-phenyl)-2′-(2,2-dimethyl-propyl)-2-oxo-1,2-dihydro-spiro[indole-3,3′-pyrrolidine]-5′-carbonyl]-amino}-3-methoxy-benzoic acid], the IC50 worked out at 5 nM.
To `CC(C)(C)C[C@@H]1N[C@@H](C(=O)Nc2ccc(I)cc2)[C@H](c2cccc(Cl)c2F)[C@]12C(=O)Nc1cc(Cl)ccc12` (racemic) [Example 56, rac-(2′S,3′R,4′S,5′R)-6-chloro-4′-(3-chloro-2-fluoro-phenyl)-2′-(2,2-dimethyl-propyl)-2-oxo-1,2-dihydro-spiro[indole-3,3′-pyrrolidine]-5′-carboxylic acid (4-iodo-phenyl)-amide] belongs 19 nM.
To `COC(=O)c1ccc(NC(=O)[C@@H]2N[C@@H](CC(C)(C)C)[C@@]3(C(=O)Nc4cc(Cl)ccc43)[C@H]2c2cccc(Cl)c2F)s1` (racemic) [Example 14, rac-5-{[(2′S,3′R,4′S,5′R)-6-chloro-4′-(3-chloro-2-fluoro-phenyl)-2′-(2,2-dimethyl-propyl)-2-oxo-1,2-dihydro-spiro[indole-3,3′-pyrrolidine]-5′-carbonyl]amino}-thiophene-2-carboxylic acid methyl ester] belongs 22 nM.
